Test results published in paper PMC10967427, “Polylactic Glycolic Acid-Mediated Delivery of Plectasin Derivative NZ2114 in Staphylococcus epidermidis Biofilms” (Antibiotics, 2024).

Test system: S. epidermidis G4 biofilm persister
Assay: Effect on biofilm persisters, colony counting
Assay type: cell-based, Staphylococcus epidermidis
Details: vancomycin 100× MIC, 24 h, induction of persisters
Experimental: The antibacterial effect of NZ2114 nanoparticles on the persistent bacteria in the biofilm was determined according to the previous study.

**Q.** CN[C@H](CC(C)C)C(=O)N[C@H]1C(=O)N[C@@H](CC(N)=O)C(=O)N[C@H]2C(=O)N[C@H]3C(=O)N[C@H](C(=O)N[C@H](C(=O)O)c4cc(O)cc(O)c4-c4cc3ccc4O)[C@H](O)c3ccc(c(Cl)c3)Oc3cc2cc(c3O[C@@H]2O[C@H](CO)[C@@H](O)[C@H](O)[C@H]2O[C@H]2C[C@](C)(N)[C@H](O)[C@H](C)O2)Oc2ccc(cc2Cl)[C@H]1O [vancomycin] was tested. Which “Number of viable bacteria in the biofilm after vancomycin” value did it give?
**A.** 5.3 × 10^6 CFU/mL
